Where a name gives a salt, the structure may show the parent alone.
Columns and labels:
Sprague-Dawley rats = assay: Rat elevated zero maze model of anxiety; format: in vivo; details: for time spent in the open arms / frequency of stretched attend postures (SAPs): 30 min pretest, 5-min test; for time spent in the open arms: vs vehicle; for anxiogenic effect: across doses tested (2.5-30 mg/kg ip); for anxiolytic effect: at a sufficient dose
From the text: The rat zero-maze model is a refined alternative to the plus-maze, the most widely used animal model of anxiety, and consists of an elevated annular platform, divided equally into four quadrants. Two opposite quadrants are enclosed by Perspex walls on both the inner and the outer edges of the platform, while the remaining two opposite quadrants are open being enclosed only by a Perspex “lip”. Animals will show a preference for the closed areas, and avoidance of the open sections is assumed to stem from a rodent's natural aversion to open, exposed spaces. The primary index of anxiety, which reflect changes in open arm preference, is the percentage of time spent on the open areas. A reduction in the amount of activity on the open areas is considered to reflect an increase in anxiety. Other, ethologically-based behaviours are also assessed as indices of anxiety. One of the most important is stretched attend postures (SAP) from closed to open quadrants. […] Shepherd, J K; et al., (1994) Behavioural and pharmacological validation of the elevated “zero-maze” as an animal model of anxiety. Psychopharmacol., 116:56-64.
Male Sprague-Dawley 200-250 g (Envigo UK) rats were used. Animals were group-housed (5 per cage; cage size: 40×40×20 cm) in a temperature-controlled environment (22±2° C.), under a 12 h light-dark cycle (lights on: 08:00 hours) for one week prior to testing. Food and water were freely available. Number of animals per group=5. Animals were moved into the experimental room 16-24 hours before testing.
The elevated 0-maze comprises a black Perspex annular platform (105 cm diameter, 10 cm width) elevated to 65 cm above ground level, divided equally into four quadrants. Two opposite quadrants are enclosed by clear red Perspex walls (27 cm high) on both the inner and outer edges of the platform, while the remaining two opposite quadrants are surrounded only by a Perspex “lip” (1 cm high) which serves as a tactile guide to animals on these open areas.
Subjects were weighed and tail marked before being injected. After a specified pretreatment time, subjects were placed in a closed quadrant and a 5-min test period were recorded on videotape for subsequent analysis. The maze were cleaned with 5% methanol/water solution and dried thoroughly between test sessions. Behavioural measures comprise percentage time spent on the open areas (% TO) and frequency of stretched attend postures (SAP) from closed to open quadrants. Since the control groups were all treated identically with the same vehicle these were combined to increase power. The Chlordiazepoxide groups were also treated identically with the same dose so these were also combined to increase power. Animals are scored as being in the open area when all four paws were in an open quadrant and in the closed area only when all four paws have passed over the open-closed divide. All testing were carried out between 9.00 and 16.00 hours.
Drug Versus Vehicle Treatments For each study, a 1-way ANOVA was conducted across vehicle, CDP, and drug treatment groups. Each group was compared to the vehicle group and a p-value for treatment determined by Fishers Least Significant Difference (LSD) test. This analysis was performed in GraphPad Prism (Version 9).Formulations: […]
Intraperitoneal (IP): Racemic methylone HCl was formulated in Vehicle 1 (Saline) for injection to concentrations of 1, 3 and 6 mg/mL to provide doses of 5, 15 and 30 mg/kg when administered ip in 5 mL/kg dosing volumes.
Intraperitoneal (IP): S-methylone HCl was formulated in Vehicle 1 (Saline) for injection to concentrations of 0.5, 1, 1.5, 3 and 6 mg/mL to provide doses of 2.5, 5, 7.5, 15 and 30 mg/kg when administered ip in 5 mL/kg dosing volumes.
Intraperitoneal (IP): R-methylone HCl was formulated in Vehicle 1 (Saline) for injection to concentrations of 1, 3 and 6 mg/mL to provide doses of 5, 15 and 30 mg/kg when administered ip in 5 mL/kg dosing volumes. […]

[1] = Metabolic stability in human liver microsomes; format: in vitro ADME; details: pooled liver microsomes, pH 7.4; human liver microsomes 0.5 mg/mL, 1 μM compound, NADPH, 0-45 min
Procedure: Pooled liver microsomes are purchased from a reputable commercial supplier. Microsomes are stored at […] prior to use. Microsomes (final protein concentration 0.5 mg/mL), 0.1 M phosphate buffer pH 7.4 and test compound (final substrate concentration 1 μM; final DMSO concentration 0.25%) are preincubated at 37° C. prior to the addition of NADPH (final concentration 1 mM) to initiate the reaction. A minus cofactor control incubation is included for each compound tested where 0.1 M phosphate buffer pH 7.4 is added instead of NADPH (minus NADPH). Two control compounds are included with each species. All incubations are performed singularly for each test compound. Each compound is incubated for 0, 5, 15, 30 and 45 min. The control (minus NADPH) is incubated for 45 min only. The reactions are stopped by transferring incubate into acetonitrile at the appropriate time points, in a 1:3 ratio. The termination plates are centrifuged at 3,000 rpm for 20 min at 4° C. to precipitate the protein.
From a plot of ln peak area ratio (compound peak area/internal standard peak area) against time, the gradient of the line is determined. Subsequently, half-life and intrinsic clearance are calculated using the equations below:
where V=Incubation volume (μL)/Microsomal protein (mg)
Relevant control compounds were assessed, ensuring intrinsic clearance values fall within the specified limits (if available).

[2] = 30 mg/kg ip vs chlordiazepoxide 6 mg/kg ip

Row | Structure (SMILES) | time spent in the open arms (Sprague-Dawley rats; 5 mg/kg ip) | decrease in SAPs compared with chlordiazepoxide (Sprague-Dawley rats; 15 mg/kg ip vs chlordiazepoxide 6 mg/kg ip) | frequency of stretched attend postures (SAPs) (Sprague-Dawley rats; 15 mg/kg ip) | time spent in the open arms (Sprague-Dawley rats; 15 mg/kg ip) | frequency of stretched attend postures (SAPs) (Sprague-Dawley rats; 30 mg/kg ip) | time spent in the open arms (Sprague-Dawley rats; 30 mg/kg ip) | anxiogenic effect (Sprague-Dawley rats) | anxiolytic effect (Sprague-Dawley rats) | half-life at 1 μM [1] | microsomal CLint at 1 μM [1] | decrease in SAPs compared with chlordiazepoxide (Sprague-Dawley rats; [2]) | time spent in the open arms compared with chlordiazepoxide (Sprague-Dawley rats; [2]) | frequency of SAPs, dose dependence (Sprague-Dawley rats; 5, 15 and 30 mg/kg ip) | time spent in the open arms, dose dependence (Sprague-Dawley rats; 5, 15 and 30 mg/kg ip) | frequency of stretched attend postures (SAPs) (Sprague-Dawley rats; 2.5 mg/kg ip) | frequency of stretched attend postures (SAPs) (Sprague-Dawley rats; 5 mg/kg ip) | frequency of stretched attend postures (SAPs) (Sprague-Dawley rats; 7.5 mg/kg ip) | time spent in the open arms (Sprague-Dawley rats; 7.5 mg/kg ip)
1 | CNC(C)C(=O)c1ccc2c(c1)OCO2 (racemic) [(rac)-Methylone Hydrochloride, 3,4-methylenedioxy-N-methylcathinone hydrochloride] | a decrease in time spent in the open arms vs placebo | not as effective as chlordiazepoxide | dose dependent decrease in SAPs | no difference from placebo | a decrease in SAPs | a significant decrease in time spent in the open arms | show anxiogenic effects at lower doses | effective anxiolytics | 157 min | 8.84 µL/min/mg | – | – | – | – | – | – | – | –
2 | CN[C@H](C)C(=O)c1ccc2c(c1)OCO2 [(R)-Methylone Hydrochloride, (R)-1-(Benzo[d][1,3]dioxol-5-yl)-2-(methylamino)propan-1-one Hydrochloride] | – | – | – | – | significantly decreasing SAPs | – | did not show any anxiogenic effect at any dose | effective anxiolytics | 203 min | 6.82 µL/min/mg | to the same level as chlordiazepoxide | as effective as chlordiazepoxide | dose dependent decrease in SAPs | dose dependent increase in time spent in the open arms | – | – | – | –
3 | CN[C@@H](C)C(=O)c1ccc2c(c1)OCO2 [(S)-Methylone Hydrochloride, (S)-1-(Benzo[d][1,3]dioxol-5-yl)-2-(methylamino)propan-1-one Hydrochloride] | the time spent in the open arms decreased as the dose increased | – | dose dependent decrease in SAPS | the time spent in the open arms decreased as the dose increased | dose dependent decrease in SAPS | the time in the open arms increased | show anxiogenic effects at lower doses | effective anxiolytics | 137 min | 10.1 µL/min/mg | even more effective than chlordiazepoxide | as effective as chlordiazepoxide | – | – | dose dependent increase in SAPs | dose dependent increase in SAPs | dose dependent decrease in SAPS | the time spent in the open arms decreased as the dose increased
